Values of other authors as cited in US9738710B2, “Method of treating a patient for pain by administering an anti-ion channel antibody” (UCB Biopharma SPRL, priority 2009, dated 2017).
Like-named read-outs stand apart in the source and are kept apart here.

Key:
[1] = neuropathic pain patients (Dworkin, 2002)
[2] = target: T1, hNav1.5 (Homo sapiens, UniProt Q14524); conditions: read-out: FRET-based Assay hNav1.5
[3] = target: T1, hNav1.5; conditions: read-out: Electrophysiology hNav1.5
[4] = target: hNav1.8 (Homo sapiens, UniProt Q9Y5Y9); conditions: read-out: FRET-based Assay hNav1.8
[5] = target: T2, hNav1.7 (Homo sapiens, UniProt Q15858); conditions: read-out: Electrophysiology hNav1.7
[6] = target: T2, hNav1.7; conditions: read-out: FRET-based Assay hNav1.7

T1 sequence (Q14524 whole entry): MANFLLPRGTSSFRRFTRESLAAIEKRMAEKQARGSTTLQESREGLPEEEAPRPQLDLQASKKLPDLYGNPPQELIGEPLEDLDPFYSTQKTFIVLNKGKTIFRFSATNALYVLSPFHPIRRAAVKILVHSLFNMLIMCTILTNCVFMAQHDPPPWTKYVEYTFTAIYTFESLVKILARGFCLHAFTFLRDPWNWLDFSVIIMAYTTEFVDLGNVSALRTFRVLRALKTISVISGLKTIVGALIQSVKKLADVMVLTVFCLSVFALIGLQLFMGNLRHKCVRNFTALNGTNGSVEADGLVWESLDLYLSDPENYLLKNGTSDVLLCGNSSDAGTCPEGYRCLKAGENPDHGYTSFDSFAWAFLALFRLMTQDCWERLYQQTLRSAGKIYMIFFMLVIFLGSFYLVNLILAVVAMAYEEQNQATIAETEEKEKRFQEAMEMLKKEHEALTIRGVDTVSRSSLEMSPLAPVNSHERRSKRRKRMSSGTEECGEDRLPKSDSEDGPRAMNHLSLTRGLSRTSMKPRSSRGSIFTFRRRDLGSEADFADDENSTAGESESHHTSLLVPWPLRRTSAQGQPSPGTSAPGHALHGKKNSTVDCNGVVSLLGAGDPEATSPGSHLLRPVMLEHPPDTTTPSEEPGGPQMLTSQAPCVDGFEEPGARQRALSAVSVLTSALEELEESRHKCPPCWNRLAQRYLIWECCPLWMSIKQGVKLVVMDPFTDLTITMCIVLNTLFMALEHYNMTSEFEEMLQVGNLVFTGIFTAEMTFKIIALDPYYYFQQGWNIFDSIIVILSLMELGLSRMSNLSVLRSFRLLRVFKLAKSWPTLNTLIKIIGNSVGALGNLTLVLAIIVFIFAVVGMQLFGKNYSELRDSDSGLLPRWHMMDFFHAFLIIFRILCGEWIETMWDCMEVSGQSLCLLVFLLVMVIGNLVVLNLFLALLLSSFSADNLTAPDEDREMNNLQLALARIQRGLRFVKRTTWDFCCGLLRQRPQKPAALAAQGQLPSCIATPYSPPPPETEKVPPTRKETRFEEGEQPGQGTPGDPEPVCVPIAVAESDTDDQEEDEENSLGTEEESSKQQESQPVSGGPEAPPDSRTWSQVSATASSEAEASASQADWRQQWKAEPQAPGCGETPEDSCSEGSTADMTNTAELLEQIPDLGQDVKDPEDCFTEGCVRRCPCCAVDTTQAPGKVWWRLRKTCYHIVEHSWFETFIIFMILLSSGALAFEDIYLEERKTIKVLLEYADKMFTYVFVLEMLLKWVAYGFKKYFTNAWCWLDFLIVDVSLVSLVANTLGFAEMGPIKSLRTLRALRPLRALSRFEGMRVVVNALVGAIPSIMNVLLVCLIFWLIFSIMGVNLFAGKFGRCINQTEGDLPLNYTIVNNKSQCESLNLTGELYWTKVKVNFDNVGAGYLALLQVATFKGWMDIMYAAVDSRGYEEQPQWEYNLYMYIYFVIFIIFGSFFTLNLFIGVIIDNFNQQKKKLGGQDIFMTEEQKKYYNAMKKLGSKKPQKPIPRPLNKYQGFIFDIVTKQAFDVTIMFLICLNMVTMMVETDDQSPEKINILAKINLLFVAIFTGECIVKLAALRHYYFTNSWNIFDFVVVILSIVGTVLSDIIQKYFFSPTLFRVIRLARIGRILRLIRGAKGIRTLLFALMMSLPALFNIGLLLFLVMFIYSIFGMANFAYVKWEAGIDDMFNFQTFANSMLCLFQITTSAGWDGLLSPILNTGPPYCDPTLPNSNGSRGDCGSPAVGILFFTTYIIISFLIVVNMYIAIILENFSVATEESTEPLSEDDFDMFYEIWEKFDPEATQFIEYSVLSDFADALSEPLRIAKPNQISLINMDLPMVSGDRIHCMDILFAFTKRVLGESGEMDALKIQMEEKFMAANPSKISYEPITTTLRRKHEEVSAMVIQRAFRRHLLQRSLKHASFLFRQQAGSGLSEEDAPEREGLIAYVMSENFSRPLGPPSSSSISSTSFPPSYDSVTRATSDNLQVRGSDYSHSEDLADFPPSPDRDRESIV
T2 sequence (Q15858 whole entry): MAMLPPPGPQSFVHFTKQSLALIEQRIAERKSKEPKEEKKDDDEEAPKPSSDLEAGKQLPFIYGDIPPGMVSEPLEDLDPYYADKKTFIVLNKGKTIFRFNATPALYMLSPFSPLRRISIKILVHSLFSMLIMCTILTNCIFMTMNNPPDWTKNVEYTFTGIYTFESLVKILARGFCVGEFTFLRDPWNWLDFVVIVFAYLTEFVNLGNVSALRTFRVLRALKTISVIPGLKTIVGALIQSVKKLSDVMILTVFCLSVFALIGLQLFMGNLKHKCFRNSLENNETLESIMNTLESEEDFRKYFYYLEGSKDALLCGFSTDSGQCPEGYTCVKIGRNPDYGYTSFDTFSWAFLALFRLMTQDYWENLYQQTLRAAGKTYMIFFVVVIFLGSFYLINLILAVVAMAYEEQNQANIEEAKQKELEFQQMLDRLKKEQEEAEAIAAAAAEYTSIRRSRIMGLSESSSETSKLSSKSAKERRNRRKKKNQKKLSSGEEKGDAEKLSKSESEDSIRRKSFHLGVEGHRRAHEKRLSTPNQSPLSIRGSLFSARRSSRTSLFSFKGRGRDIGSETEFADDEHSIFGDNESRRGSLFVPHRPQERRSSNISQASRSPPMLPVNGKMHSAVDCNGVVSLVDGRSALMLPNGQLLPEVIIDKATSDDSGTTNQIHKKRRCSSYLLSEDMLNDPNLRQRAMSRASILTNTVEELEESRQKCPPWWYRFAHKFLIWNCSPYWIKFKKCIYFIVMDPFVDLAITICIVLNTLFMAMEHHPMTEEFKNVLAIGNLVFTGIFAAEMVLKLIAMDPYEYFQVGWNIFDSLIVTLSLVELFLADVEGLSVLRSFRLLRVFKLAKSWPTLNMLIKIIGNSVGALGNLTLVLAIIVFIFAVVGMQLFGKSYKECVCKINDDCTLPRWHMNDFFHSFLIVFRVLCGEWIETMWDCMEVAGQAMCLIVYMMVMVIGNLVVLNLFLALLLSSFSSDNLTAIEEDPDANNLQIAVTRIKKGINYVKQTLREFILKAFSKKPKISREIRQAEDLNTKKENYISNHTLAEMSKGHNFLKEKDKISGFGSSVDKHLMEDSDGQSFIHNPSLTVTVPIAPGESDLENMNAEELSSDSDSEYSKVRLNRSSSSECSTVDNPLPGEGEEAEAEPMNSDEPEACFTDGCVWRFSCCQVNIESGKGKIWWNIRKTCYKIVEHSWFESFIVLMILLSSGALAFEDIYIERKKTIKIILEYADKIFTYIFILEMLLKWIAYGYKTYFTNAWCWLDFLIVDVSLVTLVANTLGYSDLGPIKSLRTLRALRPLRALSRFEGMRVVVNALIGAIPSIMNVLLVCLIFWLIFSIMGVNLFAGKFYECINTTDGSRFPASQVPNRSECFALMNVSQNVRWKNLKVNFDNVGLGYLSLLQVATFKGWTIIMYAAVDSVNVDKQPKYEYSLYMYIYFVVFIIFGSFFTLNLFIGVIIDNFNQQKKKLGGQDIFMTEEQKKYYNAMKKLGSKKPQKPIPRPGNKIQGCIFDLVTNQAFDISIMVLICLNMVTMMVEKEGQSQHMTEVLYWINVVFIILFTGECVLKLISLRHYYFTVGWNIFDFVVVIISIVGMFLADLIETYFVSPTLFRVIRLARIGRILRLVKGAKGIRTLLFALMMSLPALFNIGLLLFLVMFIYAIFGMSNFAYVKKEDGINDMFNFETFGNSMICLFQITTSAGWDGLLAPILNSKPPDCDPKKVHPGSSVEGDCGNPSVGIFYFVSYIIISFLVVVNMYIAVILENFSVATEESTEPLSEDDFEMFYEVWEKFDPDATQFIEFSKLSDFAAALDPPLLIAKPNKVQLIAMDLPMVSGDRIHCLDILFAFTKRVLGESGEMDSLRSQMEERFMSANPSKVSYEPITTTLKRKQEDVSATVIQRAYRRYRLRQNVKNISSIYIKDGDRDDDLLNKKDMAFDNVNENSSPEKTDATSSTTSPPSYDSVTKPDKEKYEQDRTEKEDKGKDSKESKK

SMILES	reduction of pain [1] [%]	share of patients with that pain reduction [1]	IC50 [2] [µM]	IC50 [3] [µM]	IC50 [4] [µM]	IC50 [5] [µM]	IC50 [6] [µM]
NCC1(CC(=O)O)CCCCC1 [gabapentin]	≤ 50	about 40%	–	–	–	–	–
CC(C)N1C(=O)C(NC(=O)C(Cc2ccccc2F)NC(=O)c2ccc(F)cc2C(F)(F)F)CCc2cc(Cl)ccc21 [N—[(R)-1-(R)-7-chloro-1-isopropyl-2-oxo-2,3,4,5-tetrahydro-1H-benzo[b]azepine-3-ylcarbamoyl)-2-(2-fluorophenyl)-ethyl]-4-fluoro-2-trifluoromethyl-benzamide]	–	–	0.18	4.3	0.3	0.55	0.03
